Patent US10001483B2, “Methods for the treatment of Kaposi's sarcoma or KSHV-induced lymphoma using immunomodulatory compounds, and uses of biomarkers” (Celgene Corporation, priority 2015, dated 2018)
Entries after “also recorded” stand apart in the source; their conditions may differ.

Key:
[1] = test system: lymphocyte subsets; assay: Immunologic correlatives: lymphocyte numbers and T cell subsets/activation by immunophenotyping of PBMC; format: in vivo, human; conditions: for CD4 and CD8 counts: week 4 and week 8 of therapy
Procedure: Aspirin at 81 mg daily was administered as thromboprophylaxis. Assessments were performed every 4 weeks for lymphocyte numbers, Kaposi sarcoma associated herpesvirus (KSHV/HHV8) viral load (VL) and HIV VL and at 8 weeks for T cell subsets and activation by immunophenotyping of peripheral blood mononuclear cells (PBMC). KSHV VL in PBMC and HIV VL in plasma were assayed by quantitative PCR; an ultrasensitive single copy assay was used for HIV VL. Changes from baseline were evaluated using the Wilcoxon signed rank test with P<0.005 considered significant given multiple comparisons. Differences in changes between the HIV infected and uninfected groups were evaluated using the Wilcoxon rank sum test. Median time of the patients on therapy 7 cycles (range 2-12).
Laboratory Assays: Lymphocyte subsets were assessed by fluorescent-activated cell sorting using the BlueOcean platform (Beckman Coulter, Carlsbad, Calif.). Plasma HIV-1 […] was evaluated using an ultrasensitive assay whose sensitivity was 1 viral copy per plasma volume. Briefly, a triplex PCR was used using a modification of a previously reported assay with three primers: one spanning the start codon of gag, one in the gag coding region, and one internal control. Samples were tested from 6 mL plasma aliquots, with 12 replicants per sample. KSHV VL in peripheral blood mononuclear cells (PBMC) was assessed by quantitative real-time PCR.
Changes in immunologic and virologic parameters were evaluated by a Wilcoxon signed rank test. Exact Wilcoxon rank sum tests were used to compare pharmacokinetic parameters at each time point and differences from baseline. All p-values are two-tailed and reported without adjustment for multiple comparisons. HRQL was analyzed using a using a mixed model repeated measures analysis for FAHI and the marginal homogeneity test for KS-specific questions

[2] = Pharmacokinetic studies: plasma concentrations of pomalidomide in KS patients (HPLC with fluorescence detection); format: in vivo, human
Procedure: A non-compartmental analysis was used to calculate plasma pharmacokinetic parameters (Pharsight Corp, Mountain View, Calif.). The maximum plasma concentration (CMAX) and time to CMAX (TMAX) were recorded as observed values; the area under the plasma concentration vs time curve (AUC) was calculated using the log-linear trapezoidal method. For day 1 of cycle 1 (C1D1), the AUC extrapolated to infinity (AUCINF) was used, unless the percent extrapolated exceeded 25%, in which case AUCLAST (to the last quantifiable time point) was used. The steady-state exposure on C1D15 was calculated using AUCLAST.
Pharmacokinetic Studies were performed pre-dose on cycle 1 day 1 and day 15. Across all analyzed doses: TMAX=2.71±1.73 hrs, T1/2=7.10±2.48 hours, and CMAX=61.21±29.30 ng/mL. […] Comparing HIV infected with non-infected subjects, for CMAX at C1D1 p=0.45, at C1D15 p=0.80 at C1D15 and comparing changes from baseline p=0.91; for AUCLAST at C1D1, p=0.63; at C1D15 p=0.97 and comparing changes from baseline p=0.91.

[3] = test system: p21; assay: Western blot of p21 in PEL cell lines; format: cell-based; conditions: 10 ii M for 72 hours; FIGS. 6A-6B
Procedure: (§1) Cell Culture: The PEL lines JSC-1 (John Hopkins University, Baltimore, Md.), dually infected with Epstein-Barr virus (EBV) and HHV-8, and BC-3 (ATCC, Rockville, Md.) and BCBL-1(National Institute of Health AIDS Research and Reagent Program, Rockville, Md.), harboring KSHV only, and CA-46, an uninfected cancerous B-cell line, were grown in RPMI 1640 medium (Invitrogen, Carlsbad, Calif.) supplemented with 15% fetal-bovine serum (FBS) (Thermo Scientific, Rockford, Ill.) and Pen/Strep glutamine at 37° C. with 5% CO2.
Western Blotting: At the end of an incubation period, cells were lysed and nuclear/cytoplasmic extracts were prepared using the NE-PER nuclear extraction kit (Pierce). Samples were subjected to SDS-PAGE (4 to 12% NuPAGE Tris-Bis) (Invitrogen) and transferred to nitrocellulose. The membrane was blocked with 5% w/v nonfat dry milk in 1×TBST (10 mM Tris-Hcl, […], 150 mM NaCl, and 0.05% Tween 20) overnight at 4° C. Blots were incubated with indicated antibodies such as anti-IRF-7 (Santa Cruz), anti-IRF-4 (Cell Signaling), anti-p21 (Cell Signaling), anti-NF-κB p65 (Cell Signaling), anti-NF-κB phospho-p65 (Cell Signaling), IFN-γRa (Cell Signaling), or anti-CRBN (Sigma-Aldrich), and subjected to the appropriate secondary antibody conjugated to alkaline phosphatase (Promega). Bands were visualized with Western Blue stabilized substrate (Promega). […]

[4] = patients; approved dose 4 mg; cited from earlier work
[5] = test system: IRF4; assay: Western blot of IRF4 in PEL cell lines; format: cell-based; conditions: BC-3, BCBL-1, JSC-1
Source text: In addition, the effect of the immunomodulatory drugs on KSHV down-regulation of MHC-1 during lytic activation was investigated by FACS analysis after pretreating the cells with Immunomodulatory drugs prior to lytic activation with butyrate.
as §1
Western Blotting: At the end of an incubation period, cells were lysed and nuclear/cytoplasmic extracts were prepared using the NE-PER nuclear extraction kit (Pierce). Samples were subjected to SDS-PAGE (4 to 12% NuPAGE Tris-Bis) (Invitrogen) and transferred to nitrocellulose. The membrane was blocked with 5% w/v nonfat dry milk in 1×TBST (10 mM Tris-Hcl, […], 150 mM NaCl, and 0.05% Tween 20) overnight at 4° C. […]

[6] = human, po, plasma, across all analyzed doses, cycle 1 day 1 and day 15, 5 mg orally

With `Nc1cccc2c1C(=O)N(C1CCC(=O)NC1=O)C2=O` (stereo not shown) [pomalidomide, 4-amino-2-(2,6-dioxopiperidin-3-yl)isoindoline-1,3-dione] the “CD19 B-cells” value ([1]; during therapy) was “decline; also recorded: reversible decrease”, the NK cells ([1]; during therapy) was “no significant change” and the “Ki67 or PD-1 expression in CD4 or CD8 cells” value ([1]; in vivo) was “no significant changes”. For the same compound, the “difference between HIV infected and uninfected patient groups in observed effects (cell number and phenotype)” value ([1]; in vivo) was “no significant difference”, the “CD3 (cells/μL) Change to End Therapy (Med, range)” value ([1]; median change from baseline) was “+11 cells/μL” and the “CD3 (cells/μL) Change to Week 8 (Med, range)” value ([1]; median change from baseline) was “+190 cells/μL”. The “CD4 (cells/μL) Change to End Therapy (Med, range)” value ([1]; median change from baseline) was −46 cells/μL, the “CD4 (cells/μL) Change to Week 8 (Med, range)” value ([1]; median change from baseline) was “+40 cells/μL” and the “CD8 (cells/μL) Change to End Therapy (Med, range)” value ([1]; median change from baseline) was 104 cells/μL. For the same compound, the “CD8 (cells/μL) Change to Week 8 (Med, range)” value ([1]; median change from baseline) was “+142 cells/μL”, the “CD19 (cells/μL) Change to End Therapy (Med, range)” value ([1]; median change from baseline) was −87 cells/μL and the “CD19 (cells/μL) Change to Week 8 (Med, range)” value ([1]; median change from baseline) was −70 cells/μL. The “NK (cells/μL) Change to End Therapy (Med, range)” value ([1]; median change from baseline) was 10 cells/μL, the “NK (cells/μL) Change to Week 8 (Med, range)” value ([1]; median change from baseline) was −6 cells/μL and the “CD19 (cells/μL) Change to Week 4 (Med, range)” value ([1]; median change from baseline 141) was −35 cells/μL. For the same compound, the “NK (cells/μL) Change to Week 4 (Med, range)” value ([1]; median change from baseline 178) was “+23 cells/μL”, the “CD4 (cells/μL) Change to Week 4 (Med, range)” value ([1]; median change from baseline 440) was “+108 cells/μL” and the “CD8 (cells/μL) Change to Week 4 (Med, range)” value ([1]; median change from baseline 500) was “+101 cells/μL”. For the same compound, the “CD3 (cells/μL) Change to Week 4 (Med, range)” value ([1]; median change from baseline 1184) was “+275 cells/μL”, the “CD4 Subsets 38+ DR+: Absolute Change in % at Week 8 (med, range)” value ([1]; median, baseline 2.5 %) was “+2%” and the “CD4 Subsets RO− 27− (E): Absolute Change in % at Week 8 (med, range)” value ([1]; median, baseline 3.3 %) was −1.5%. For the same compound, the “CD4 Subsets 57+: Absolute Change in % at Week 8 (med, range)” value ([1]; median, baseline 6.3 %) was −1.34%, the “CD8 Subsets 38+ DR+: Absolute Change in % at Week 8 (med, range)” value ([1]; median, baseline 8.0 %) was “+8.5%” and the “CD4 Subsets HLA DR+: Absolute Change in % at Week 8 (med, range)” value ([1]; median, baseline 8.9 %) was “+8.3%”. The “CD4 Subsets RO+ 27− (EM): Absolute Change in % at Week 8 (med, range)” value ([1]; median, baseline 16.7 %) was “+1.7%”, the “CD8 Subsets RO+ 27+ (CM): Absolute Change in % at Week 8 (med, range)” value ([1]; median, baseline 17.1 %) was “+8.1%” and the “CD8 Subsets RO+ 27− (EM): Absolute Change in % at Week 8 (med, range)” value ([1]; median, baseline 18.4 %) was “+1.0%”. For the same compound, the “CD8 Subsets HLA DR+: Absolute Change in % at Week 8 (med, range)” value ([1]; median, baseline 19.6 %) was “+11.6%”, the “CD8 Subsets RO− 27+ (N): Absolute Change in % at Week 8 (med, range)” value ([1]; median, baseline 21.0 %) was −5.1% and the “CD8 Subsets 57+: Absolute Change in % at Week 8 (med, range)” value ([1]; median, baseline 30.8 %) was −11.0%. The “CD8 Subsets RO− 27− (E): Absolute Change in % at Week 8 (med, range)” value ([1]; median, baseline 31.8 %) was −6.1%, the “CD4 Subsets RO− 27+ (N): Absolute Change in % at Week 8 (med, range)” value ([1]; median, baseline 32.6 %) was −6.6% and the “CD8 Subsets 38+: Absolute Change in % at Week 8 (med, range)” value ([1]; median, baseline 33.4 %) was “+19.9%”. For the same compound, the “CD4 Subsets 38+: Absolute Change in % at Week 8 (med, range)” value ([1]; median, baseline 34.5 %) was “+4.3%”, the “CD4 Subsets RO+ 27+ (CM): Absolute Change in % at Week 8 (med, range)” value ([1]; median, baseline 41.9 %) was “+6.4%” and the “CD4 and CD8 counts” value [1] was “Significant increases”. For the same compound, the “CD4 and CD8 counts” value ([1]; listed as Pomalidomide) was “significant increases”, the “activation (CD38+, HLADR+ and DR+/38+) of CD4 and CD8 T-cells” value ([1]; week 8) was “significant increases” and the “senescence (CD57+) of CD4 and CD8 T-cells” value ([1]; week 8) was “decreases”. The accumulation ([2]; from day 1 to day 15) was “No evidence of accumulation”, the “differences in pharmacokinetics by ART regimen” value ([2]; human, in vivo) was “No significant differences” and the “differences in pharmacokinetics by HIV status” value ([2]; human, in vivo) was “No significant differences”. It also gave a Tmax [2, 6] of 2.71 ± 1.73 h, a half-life [2, 6] of 7.1 ± 2.48 h and a Cmax ([2]; plasma, across all analyzed doses, cycle 1 day 1 and day 15, 5 mg orally) of 0.06121 ± 0.0293 µg/mL. For the same compound, the p21 levels [3] was “most effective in up-regulating p21”, the “Plasma Serum Concentration” value [4] was 0.3 µM and the IRF4 expression level ([5]; 1 μM and 10 μM, FIGS. 4A-4D) was “downregulated IRF4 in all three PEL lines”. The IRF4 expression level ([5]; indicated concentrations for 72 hours, among three tested compounds, FIGS. 3A-3C) was “most effective in downregulating IRF4”.
